Source: patent EP1935986B1, “Luminogenic and fluorogenic compounds and methods to detect molecules or conditions” (priority 2005, dated 2006)
Values joined by “and” are separate entries in the source; they are usually repeats but may differ in a detail not shown here. Identical values can stand only once.

Key:
beta-glucuronidase (GUS) = biological target: T1, beta-glucuronidase (GUS) (Homo sapiens, UniProt P08236); experiment: Beta-glucuronidase assay with luciferin 6'-glucuronide (luminescent) or 4-methylumbelliferyl glucuronide (fluorescent); format: biochemical; details: for limit-of-detection: GUS enzyme detected, luminescent vs fluorescent substrate
T1 construct: purchased Sigma-Aldrich
T1 sequence (P08236 23-651): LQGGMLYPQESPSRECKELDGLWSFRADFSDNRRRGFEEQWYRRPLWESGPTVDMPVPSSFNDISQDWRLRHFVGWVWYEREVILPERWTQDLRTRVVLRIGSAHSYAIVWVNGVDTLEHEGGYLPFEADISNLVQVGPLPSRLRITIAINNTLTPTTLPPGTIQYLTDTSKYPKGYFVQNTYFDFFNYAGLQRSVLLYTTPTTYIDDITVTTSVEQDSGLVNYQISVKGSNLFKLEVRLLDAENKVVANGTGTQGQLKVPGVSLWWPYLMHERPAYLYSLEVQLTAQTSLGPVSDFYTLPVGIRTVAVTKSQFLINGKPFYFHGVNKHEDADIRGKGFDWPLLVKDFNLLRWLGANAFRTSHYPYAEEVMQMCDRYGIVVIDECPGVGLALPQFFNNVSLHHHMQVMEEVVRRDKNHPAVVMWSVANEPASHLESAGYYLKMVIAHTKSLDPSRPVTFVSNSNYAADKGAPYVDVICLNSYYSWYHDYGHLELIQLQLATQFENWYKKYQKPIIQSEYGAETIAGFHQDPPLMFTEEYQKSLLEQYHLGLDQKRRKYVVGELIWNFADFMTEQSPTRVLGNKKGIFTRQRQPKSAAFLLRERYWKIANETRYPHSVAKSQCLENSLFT
Description: The source of the human enzyme was Sigma-Aldrich. GUS was incubated with the substrate in 50 mM MES, pH 6.3, for 15 minutes. […]

luciferase = experiment: No-enzyme control: activity of luciferase towards the luciferin derivative (background luminescence)
Description: The reactions (Table 1) were assembled by first adding the water and 1 M BisTris solutions in individual 0.5 ml microfuge tubes, then adding the other components except for the GST #3 solution. Finally, the GST #3 (Figure 12) solution was added to the reactions, the resulting solution was mixed, and the time of addition noted. […]
The GST #3 addition was performed last and the solutions were mixed immediately after addition of GST #3. […] After mixing, the light produced by the solution was measured using a Turner TD 20/20 luminometer.
After assembly, the enzyme stock solutions were diluted 1:10 into 10 mM HEPES, pH 7.5 and the following additions were made to the reactions.
A 5 µl sample of the luciferol DMF solution was added to each of the reactions above and a timer was started upon the addition of the first luciferol/DMF solution to reaction 1. All reactions were kept at room temperature.
After incubating 5 minutes at room temperature, the light produced by these samples was measured using a Turner TD 20 luminometer.
To initiate the conversions, 5 µl of luciferol solution was added to reactions […], 6-9, and 11-15, and 10 µl of luciferol was added to reactions 5 and 10 and the tubes mixed after that addition. Immediately after luciferol addition to reaction 1, a timer was started and the time of luciferol addition to the other tubes noted. After mixing, reaction 11-15 were placed at 37°C.
After incubating 10 minutes at room temperature, the light produced by these samples was read using a Turner TD 20 luminometer (Table 18).
To initiate Step 1, 45 µl of enzyme and buffer were added to each well.
Solution A and Solution B are components of the NADPH Regeneration System (V9510, Promega Corp., Madison WI). […] Solution B contains 40 units/ml glucose-6-phosphate dehydrogenase in 5 mM citrate pH 5.5.

[1] = test system: calf intestinal alkaline phosphatase; experiment: Luminescent alkaline phosphatase assay with AP 4, luciferase and ATP; format: biochemical; details: 1 µM AP 4
Description: Alkaline Phosphatase (Promega Corp. M1821) was diluted in 50 mM Tris Cl, pH 9.3, 1 mM MgCl2, 0.1 mM ZnCl2 to a concentration of 1 fmol/µl to 0.01 zeptomole/µl.
A reaction solution was assembled containing 1 µM AP 4 (Figure 69); 100 µg/ml of the thermostable luciferase, 2 mM ATP; 10 mM MgCl2; 100 µM ZnCl2 in 50 mM Tris Cl, pH 8.5. This solution was allowed to incubate for 1 hour at room temperature to reduce background light production.
Quadruplicate wells in a luminometer plate (Nunc Maxisorb plate) were given 10 µl of the diluted alkaline phosphatase stocks and 100 µl of reaction solution. The plate was incubated at room temperature for 30 minutes, then the light produced by the solutions was measured using a Veritas Luminometer.

[2] = test system: thermostable luciferase (Luc 146-1H2); experiment: Residual thermostable luciferase activity after reaction with luciferin derivatives (Steady Glo); format: biochemical; details: Substrate 100
Description: This stock was used to produce enzyme stock solution having of 200 µg/ml enzyme solution in 1 mg/ml BSA, 200 mM HEPES buffer, pH 8.0, 20 mM MgCl2.
Solutions were made using a 1 M DTT solution, pH adjusted to 8.0, a 20 mM Coenzyme A solution in water (both described in examples above), a 100 mM ATP solution and water to create the following solutions: Sol'A, 100 µM ATP; Sol'B, 100 µM ATP, 4 mM Coenzyme A; Sol'n C, 100 µM ATP, 400 mM DTT, and; Sol'n D, 100 µM ATP, 4 mM Coenzyme A and 400 mM DTT.
After assembly, the reactions were initiated by addition of 25 µl of the thermostable luciferase stock solution above and mixing the tube contents. A 50 µl sample was immediately removed and placed in a luminometer tube and the light read and the tube then replaced in a tube rack at room temperature. While the light reading was being taken, a 5 µl sample of the remaining reaction (which was kept at room temperature) was diluted into 495 µl of 50 mM BisTris, pH 6.5, 1 mg/ml BSA, 1 mM EDTA prechilled to 4°C and the tube mixed and placed on ice. The light produced by the samples in the luminometer tubes were re-read at 20, 40, 60, 90 and 120 minutes post enzyme addition. Additional 5 µl samples were taken and diluted as above at 60 and 120 minutes post enzyme addition. Once all these readings and samples were taken, 50 µl of the diluted samples was mixed with 50 µl of Steady Glo in luminometer tubes, the tubes incubated 10 minutes on ice then the light produced was read on a Turner TD 20/20 luminometer.

SMILES: Cc1cc(=O)oc2cc(O[C@@H]3O[C@H](C(=O)O)[C@@H](O)[C@H](O)[C@H]3O)ccc12 [4-methylumbelliferyl glucuronide, reference compound]
- Km (beta-glucuronidase (GUS); 50 mM MES, pH 6.3): 59 ± 8 µM
- limit-of-detection (beta-glucuronidase (GUS)): 2.01 ng/mL

SMILES: O=C(O)[C@H]1CSC(c2nc3ccc(OCc4ccc(OP(=O)(O)O)cc4)cc3s2)=N1 [AP-4, 6-(4-phosphoric acid benzylether) luciferin]
- Avg Reading (luciferase): 2624.5
- light reading, Reaction 1 (luciferase): 2620
- light reading, Reaction 2 (luciferase): 2735
- light reading, Reaction 3 (luciferase): 2612
- light reading, Reaction 4 (luciferase): 2531
- Net Reading ([1]; # AP molecules 0): 0
- Avg Reading ([1]; # AP molecules 6): 2714.67
- Net Reading ([1]; # AP molecules 6): 89
- light reading, Reaction 1 ([1]; # AP molecules 6): 2706
- light reading, Reaction 2 ([1]; # AP molecules 6): 2807
- light reading, Reaction 3 ([1]; # AP molecules 6): 2631
- Avg Reading ([1]; # AP molecules 60): 2772.5
- Net Reading ([1]; # AP molecules 60): 148
- light reading, Reaction 1 ([1]; # AP molecules 60): 2920
- light reading, Reaction 2 ([1]; # AP molecules 60): 2795
- light reading, Reaction 3 ([1]; # AP molecules 60): 2728
- light reading, Reaction 4 ([1]; # AP molecules 60): 2647
- Avg Reading ([1]; # AP molecules 600): 3079.8
- Net Reading ([1]; # AP molecules 600): 455
- light reading, Reaction 1 ([1]; # AP molecules 600): 3118
- light reading, Reaction 2 ([1]; # AP molecules 600): 3051
- light reading, Reaction 3 ([1]; # AP molecules 600): 3345
- light reading, Reaction 4 ([1]; # AP molecules 600): 2805
- Avg Reading ([1]; # AP molecules 6,000): 3185
- Net Reading ([1]; # AP molecules 6,000): 560
- light reading, Reaction 1 ([1]; # AP molecules 6,000): 3189
- light reading, Reaction 2 ([1]; # AP molecules 6,000): 3144
- light reading, Reaction 3 ([1]; # AP molecules 6,000): 3002
- light reading, Reaction 4 ([1]; # AP molecules 6,000): 3405
- Avg Reading ([1]; # AP molecules 60,000): 5685.3
- Net Reading ([1]; # AP molecules 60,000): 3060
- light reading, Reaction 1 ([1]; # AP molecules 60,000): 5956
- light reading, Reaction 2 ([1]; # AP molecules 60,000): 5641
- light reading, Reaction 3 ([1]; # AP molecules 60,000): 5416
- light reading, Reaction 4 ([1]; # AP molecules 60,000): 5728
- Avg Reading ([1]; # AP molecules 600,000): 30658.5
- Net Reading ([1]; # AP molecules 600,000): 28034
- light reading, Reaction 1 ([1]; # AP molecules 600,000): 30042
- light reading, Reaction 2 ([1]; # AP molecules 600,000): 31132
- light reading, Reaction 3 ([1]; # AP molecules 600,000): 29781
- light reading, Reaction 4 ([1]; # AP molecules 600,000): 31679
- Avg Reading ([1]; # AP molecules 6,000,000): 274510.5
- Net Reading ([1]; # AP molecules 6,000,000): 271886
- light reading, Reaction 1 ([1]; # AP molecules 6,000,000): 281115
- light reading, Reaction 2 ([1]; # AP molecules 6,000,000): 254693
- light reading, Reaction 3 ([1]; # AP molecules 6,000,000): 265592
- light reading, Reaction 4 ([1]; # AP molecules 6,000,000): 296642
- Avg Reading ([1]; # AP molecules 60,000,000): 2394497
- Net Reading ([1]; # AP molecules 60,000,000): 2391872
- light reading, Reaction 1 ([1]; # AP molecules 60,000,000): 2639163
- light reading, Reaction 2 ([1]; # AP molecules 60,000,000): 2283882
- light reading, Reaction 3 ([1]; # AP molecules 60,000,000): 2320675
- light reading, Reaction 4 ([1]; # AP molecules 60,000,000): 2334267

SMILES: O=C(O)[C@H]1CSC(c2nc3ccc(OCCCl)cc3s2)=N1 [L' in-CEE]
- light values obtained upon addition of the diluted reaction samples into Steady Glo reagent ([2]; + Co A & DTT, Time Sample Taken 0 min): 1745
- light values obtained upon addition of the diluted reaction samples into Steady Glo reagent ([2]; + Co A & DTT, Time Sample Taken 60 min): 1319
- light values obtained upon addition of the diluted reaction samples into Steady Glo reagent ([2]; + Co A & DTT, Time Sample Taken 120 min): 1343
- light values obtained upon addition of the diluted reaction samples into Steady Glo reagent ([2]; + Co A, Time Sample Taken 0 min): 1127
- light values obtained upon addition of the diluted reaction samples into Steady Glo reagent ([2]; + Co A, Time Sample Taken 60 min): 1055
- light values obtained upon addition of the diluted reaction samples into Steady Glo reagent ([2]; + Co A, Time Sample Taken 120 min): 770.5
- light values obtained upon addition of the diluted reaction samples into Steady Glo reagent ([2]; + DTT, Time Sample Taken 0 min): 1168
- light values obtained upon addition of the diluted reaction samples into Steady Glo reagent ([2]; + DTT, Time Sample Taken 60 min): 501.5
- light values obtained upon addition of the diluted reaction samples into Steady Glo reagent ([2]; + DTT, Time Sample Taken 120 min): 1478
- light values obtained upon addition of the diluted reaction samples into Steady Glo reagent ([2]; Alone, Time Sample Taken 0 min): 1262
- light values obtained upon addition of the diluted reaction samples into Steady Glo reagent ([2]; Alone, Time Sample Taken 60 min): 1203
- light values obtained upon addition of the diluted reaction samples into Steady Glo reagent ([2]; Alone, Time Sample Taken 120 min): 1273

SMILES: O=C(O)[C@H]1O[C@@H](Oc2ccc3nc(C4=N[C@@H](C(=O)O)CS4)sc3c2)[C@H](O)[C@@H](O)[C@@H]1O [Luciferin 6'-glucuronide]
- limit-of-detection (beta-glucuronidase (GUS)): 0.28 ng/mL
- signal-to-noise, luminescence (beta-glucuronidase (GUS); [GUS] 4.3 ng/ml): 68
- signal-to-noise, luminescence (beta-glucuronidase (GUS); [GUS] 8.7 ng/ml): 133
- signal-to-noise, luminescence (beta-glucuronidase (GUS); [GUS] 34.7 ng/ml): 649
- signal-to-noise, luminescence (beta-glucuronidase (GUS); [GUS] 69.4 ng/ml): 1411
- signal-to-noise, luminescence (beta-glucuronidase (GUS); [GUS] 138.8 ng/ml): 3104
- signal-to-noise, luminescence (beta-glucuronidase (GUS); [GUS] 277.5 ng/ml): 7300

SMILES: OC[C@H]1CSC(c2nc3ccc(O)cc3s2)=N1 [luciferol]
- light produced (luciferase; Table 18 Rx 1: no enzyme, KPO4 pH 7.4, room temperature, 30/60/95/190/280 minutes): 6.077 and 6.091 and 5.849 and 4.364 and 7.694
- light produced (luciferase; Table 18 Rx 11: no enzyme, 37°C, time): 5.814 and 6.078 and 6.302 and 6.889 and 8.399
